“And” between values parts separate entries of the source, which are not always exact repeats. Identical values can stand only once.
How the values were obtained:
Aurora-A wild type = target: T1, Aurora-A wild type (Homo sapiens, UniProt O14965); experiment: Cellular inhibition of Aurora-A autophosphorylation at T288 in HCT116 cells; format: cell-based; conditions: 1.5 μM
T1 construct: expressed in transfected cells; host or cells: Hela cervical cancer cells; HCT116 human colon carcinoma cells
Protocol: Determination of cellular inhibition of Aurora-A (at T288) and histone H3 (at S10) has been described previously.[19] Briefly, cells were transfected with the Myc-tagged Aurora-A wild type or mutants and treated with different concentrations of the inhibitors for 2 h followed by lysis in LDS sample buffer. The samples were sonicated and boiled, and the proteins were separated by LDS–PAGE and transferred to nitrocellulose membranes. The upper and lower parts of the membranes were probed with anti-P-T288 (Aurora-A autophosphorylation/activation) and anti-P-histone H3 (Aurora-B substrate phosphorylation) antibodies, respectively. The blots were quantified and IC50 values determined using Graphpad Prism. Mammalian cell expression constructs encoding Aurora-A T217E, L215R, and R220K mutants with N-terminal Myc tags were produced using Quikchange mutagenesis (Stratagene).

Aurora B = Aurora B (Homo sapiens, UniProt Q96GD4); experiment: Cellular inhibition of histone H3 phosphorylation at S10 (Aurora-B biomarker) in HCT116 cells; format: cell-based
Chain of Aurora B (Q96GD4 whole entry): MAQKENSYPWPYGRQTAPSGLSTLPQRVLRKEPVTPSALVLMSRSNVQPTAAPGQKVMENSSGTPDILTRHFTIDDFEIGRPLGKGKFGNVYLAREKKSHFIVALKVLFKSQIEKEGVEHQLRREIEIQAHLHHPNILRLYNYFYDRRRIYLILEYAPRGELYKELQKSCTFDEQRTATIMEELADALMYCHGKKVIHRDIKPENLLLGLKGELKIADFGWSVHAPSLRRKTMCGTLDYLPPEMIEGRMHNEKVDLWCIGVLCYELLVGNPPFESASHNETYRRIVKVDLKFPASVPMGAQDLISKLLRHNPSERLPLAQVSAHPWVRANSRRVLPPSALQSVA
Chain of Aurora B (Q9NQS7 whole entry partner): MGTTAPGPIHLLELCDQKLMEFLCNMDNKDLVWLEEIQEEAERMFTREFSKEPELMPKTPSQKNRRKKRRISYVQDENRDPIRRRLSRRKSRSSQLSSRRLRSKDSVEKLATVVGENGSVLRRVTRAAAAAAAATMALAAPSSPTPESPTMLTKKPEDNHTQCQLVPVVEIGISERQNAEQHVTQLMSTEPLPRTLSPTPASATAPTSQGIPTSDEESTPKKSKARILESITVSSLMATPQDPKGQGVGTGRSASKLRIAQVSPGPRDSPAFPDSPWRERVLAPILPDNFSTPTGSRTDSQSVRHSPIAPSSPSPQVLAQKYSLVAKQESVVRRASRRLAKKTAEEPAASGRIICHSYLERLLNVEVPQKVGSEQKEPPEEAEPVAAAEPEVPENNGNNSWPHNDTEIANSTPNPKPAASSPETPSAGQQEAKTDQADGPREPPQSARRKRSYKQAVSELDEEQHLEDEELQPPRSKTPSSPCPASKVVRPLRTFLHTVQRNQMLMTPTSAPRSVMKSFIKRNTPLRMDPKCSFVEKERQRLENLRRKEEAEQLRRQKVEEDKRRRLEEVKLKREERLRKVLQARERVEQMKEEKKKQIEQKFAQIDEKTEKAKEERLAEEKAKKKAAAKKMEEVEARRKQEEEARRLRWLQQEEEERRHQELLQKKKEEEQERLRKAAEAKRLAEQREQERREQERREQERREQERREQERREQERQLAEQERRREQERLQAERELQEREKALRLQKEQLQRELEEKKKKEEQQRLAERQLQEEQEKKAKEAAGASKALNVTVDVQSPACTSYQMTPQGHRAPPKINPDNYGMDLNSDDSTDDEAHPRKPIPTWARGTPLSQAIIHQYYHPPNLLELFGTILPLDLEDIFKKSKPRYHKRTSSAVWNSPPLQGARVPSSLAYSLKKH
Chain of Aurora B (O15392 whole entry partner): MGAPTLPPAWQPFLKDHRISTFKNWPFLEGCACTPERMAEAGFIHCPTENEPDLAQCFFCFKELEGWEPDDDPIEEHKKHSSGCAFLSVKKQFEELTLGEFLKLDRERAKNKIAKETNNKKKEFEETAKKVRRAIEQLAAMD
Chain of Aurora B (Q53HL2 whole entry partner): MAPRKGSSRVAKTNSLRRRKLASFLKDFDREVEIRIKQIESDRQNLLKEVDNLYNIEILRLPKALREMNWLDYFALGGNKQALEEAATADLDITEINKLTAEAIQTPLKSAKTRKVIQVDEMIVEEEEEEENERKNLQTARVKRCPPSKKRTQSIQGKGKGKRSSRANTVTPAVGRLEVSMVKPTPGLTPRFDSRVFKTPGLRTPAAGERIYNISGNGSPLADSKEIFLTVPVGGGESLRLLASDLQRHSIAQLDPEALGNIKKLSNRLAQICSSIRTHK

CK1δ = CK1δ (Homo sapiens, UniProt P48730); experiment: Kinase selectivity profiling; format: biochemical; conditions: 50-kinase panel (MRC-PPU Express Screen)
Text: (§1) Compound 28c was profiled against a panel of 110 kinases at the International Centre for Protein Kinase Profiling, Division of Signal Transduction Therapy, University of Dundee. Compound 40f was profiled against a panel of 50 kinases (MRC-PPU Express Screen) also at the International Centre for Protein Kinase Profiling.

JNK1 = JNK1 (Homo sapiens, UniProt P45983); experiment: Kinase selectivity profiling; format: biochemical
Chain of JNK1 (P45983 whole entry, species assumed): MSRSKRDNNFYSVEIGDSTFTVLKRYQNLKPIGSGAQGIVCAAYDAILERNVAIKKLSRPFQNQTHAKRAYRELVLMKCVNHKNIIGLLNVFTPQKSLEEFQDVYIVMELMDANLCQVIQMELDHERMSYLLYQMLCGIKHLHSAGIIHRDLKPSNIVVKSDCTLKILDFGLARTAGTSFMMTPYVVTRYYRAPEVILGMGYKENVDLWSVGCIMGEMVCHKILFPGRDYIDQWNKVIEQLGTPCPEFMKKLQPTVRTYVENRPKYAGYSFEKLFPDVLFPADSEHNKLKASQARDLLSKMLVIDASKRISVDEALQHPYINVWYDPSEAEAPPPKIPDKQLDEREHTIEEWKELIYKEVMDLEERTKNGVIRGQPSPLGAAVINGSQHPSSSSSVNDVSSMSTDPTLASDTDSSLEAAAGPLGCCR
Text: as §1

LKB1 = LKB1 (Homo sapiens, UniProt Q15831); experiment: Kinase selectivity profiling; format: biochemical
Chain of LKB1 (Q15831 whole entry): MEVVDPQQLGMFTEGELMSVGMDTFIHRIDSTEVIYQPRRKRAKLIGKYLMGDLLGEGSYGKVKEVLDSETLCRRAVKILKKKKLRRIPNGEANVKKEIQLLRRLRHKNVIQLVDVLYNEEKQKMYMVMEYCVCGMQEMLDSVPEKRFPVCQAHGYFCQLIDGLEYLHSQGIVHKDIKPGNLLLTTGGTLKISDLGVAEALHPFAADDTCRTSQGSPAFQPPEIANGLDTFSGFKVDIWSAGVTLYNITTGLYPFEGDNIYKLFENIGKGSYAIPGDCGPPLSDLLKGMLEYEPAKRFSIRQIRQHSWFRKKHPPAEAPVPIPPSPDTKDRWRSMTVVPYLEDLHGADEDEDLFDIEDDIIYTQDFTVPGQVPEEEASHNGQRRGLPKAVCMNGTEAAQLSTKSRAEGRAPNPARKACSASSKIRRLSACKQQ
Chain of LKB1 (Q7RTN6 whole entry partner): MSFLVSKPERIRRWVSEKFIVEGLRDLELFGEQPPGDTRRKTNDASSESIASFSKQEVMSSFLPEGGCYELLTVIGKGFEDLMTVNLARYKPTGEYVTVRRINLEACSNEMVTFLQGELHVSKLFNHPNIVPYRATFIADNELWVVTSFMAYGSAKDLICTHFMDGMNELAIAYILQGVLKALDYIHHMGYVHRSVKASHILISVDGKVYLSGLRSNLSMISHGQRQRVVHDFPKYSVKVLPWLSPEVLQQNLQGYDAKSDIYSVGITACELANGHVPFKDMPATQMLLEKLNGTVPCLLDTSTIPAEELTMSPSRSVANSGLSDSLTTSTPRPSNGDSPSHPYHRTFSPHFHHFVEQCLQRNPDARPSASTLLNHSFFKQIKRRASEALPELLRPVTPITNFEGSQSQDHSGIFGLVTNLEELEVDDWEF
Chain of LKB1 (Q9Y376 whole entry partner): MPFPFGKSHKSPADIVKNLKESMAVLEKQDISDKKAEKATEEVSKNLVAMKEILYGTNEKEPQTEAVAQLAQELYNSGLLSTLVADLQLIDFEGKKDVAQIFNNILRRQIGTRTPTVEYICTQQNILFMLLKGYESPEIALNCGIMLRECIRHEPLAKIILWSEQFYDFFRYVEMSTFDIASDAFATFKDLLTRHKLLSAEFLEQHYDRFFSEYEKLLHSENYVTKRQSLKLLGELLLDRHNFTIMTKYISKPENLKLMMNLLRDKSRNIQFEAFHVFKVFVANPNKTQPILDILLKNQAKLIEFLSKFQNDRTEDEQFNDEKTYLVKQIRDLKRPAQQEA
Text: as §1

PAK4 = PAK4 (Homo sapiens, UniProt O96013); experiment: Kinase selectivity profiling; format: biochemical
Chain of PAK4 (O96013 whole entry): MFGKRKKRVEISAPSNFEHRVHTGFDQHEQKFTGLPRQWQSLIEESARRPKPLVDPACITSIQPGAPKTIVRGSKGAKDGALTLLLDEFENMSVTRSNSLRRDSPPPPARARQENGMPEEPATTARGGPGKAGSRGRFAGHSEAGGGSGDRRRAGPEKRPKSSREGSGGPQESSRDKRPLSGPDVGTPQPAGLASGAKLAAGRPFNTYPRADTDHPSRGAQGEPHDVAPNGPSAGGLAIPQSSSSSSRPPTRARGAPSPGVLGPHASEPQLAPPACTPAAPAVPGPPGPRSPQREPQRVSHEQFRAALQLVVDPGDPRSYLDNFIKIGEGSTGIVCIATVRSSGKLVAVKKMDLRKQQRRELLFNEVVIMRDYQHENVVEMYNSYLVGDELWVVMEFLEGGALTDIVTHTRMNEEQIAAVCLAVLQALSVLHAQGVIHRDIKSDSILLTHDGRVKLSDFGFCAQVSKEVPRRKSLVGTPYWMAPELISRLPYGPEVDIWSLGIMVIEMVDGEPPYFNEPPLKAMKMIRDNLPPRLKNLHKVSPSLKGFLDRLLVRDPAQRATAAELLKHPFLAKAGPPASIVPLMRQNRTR
Text: as §1

PRK2 = PRK2 (Homo sapiens, UniProt Q16513); experiment: Kinase selectivity profiling; format: biochemical
Chain of PRK2 (Q16513 whole entry, species assumed): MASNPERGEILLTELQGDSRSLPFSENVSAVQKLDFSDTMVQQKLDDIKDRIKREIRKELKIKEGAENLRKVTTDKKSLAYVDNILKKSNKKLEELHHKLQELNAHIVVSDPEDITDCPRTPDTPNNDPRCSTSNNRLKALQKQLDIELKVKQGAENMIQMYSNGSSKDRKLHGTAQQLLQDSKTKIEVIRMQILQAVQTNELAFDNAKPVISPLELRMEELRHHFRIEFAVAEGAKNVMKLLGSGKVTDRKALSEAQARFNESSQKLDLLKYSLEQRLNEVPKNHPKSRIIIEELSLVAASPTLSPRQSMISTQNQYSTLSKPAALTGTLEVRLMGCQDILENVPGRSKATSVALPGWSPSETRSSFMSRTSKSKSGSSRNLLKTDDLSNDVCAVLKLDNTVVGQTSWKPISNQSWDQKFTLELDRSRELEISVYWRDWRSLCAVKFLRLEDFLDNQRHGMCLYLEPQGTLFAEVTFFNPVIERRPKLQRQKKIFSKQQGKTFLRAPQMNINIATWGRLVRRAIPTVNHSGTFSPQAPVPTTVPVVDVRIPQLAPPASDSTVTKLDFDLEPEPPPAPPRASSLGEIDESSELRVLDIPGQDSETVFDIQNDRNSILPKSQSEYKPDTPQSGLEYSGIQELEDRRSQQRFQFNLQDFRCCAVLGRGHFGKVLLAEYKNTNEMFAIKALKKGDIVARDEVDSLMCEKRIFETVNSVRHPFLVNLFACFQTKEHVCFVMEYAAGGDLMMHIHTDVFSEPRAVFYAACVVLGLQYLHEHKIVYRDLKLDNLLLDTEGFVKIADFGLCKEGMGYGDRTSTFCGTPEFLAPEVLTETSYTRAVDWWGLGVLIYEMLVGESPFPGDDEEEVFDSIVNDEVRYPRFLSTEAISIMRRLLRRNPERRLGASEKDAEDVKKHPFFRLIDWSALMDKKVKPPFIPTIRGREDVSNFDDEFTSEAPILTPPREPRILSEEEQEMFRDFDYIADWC
Text: as §1

TTK = TTK (Homo sapiens, UniProt P33981); experiment: Kinase selectivity profiling; format: biochemical
Text: as §1

TrkA = TrkA (Homo sapiens, UniProt P04629); experiment: Kinase selectivity profiling; format: biochemical
Text: as §1

AMPK (hum) = experiment: Kinase selectivity profiling; format: biochemical, human; conditions: 1 µM; 50-kinase panel (MRC-PPU Express Screen)
Text: as §1

In vivo mouse PK = conditions: plasma, mouse (female Balb/C), 5 mg kg^–1
Protocol: (§2) Mice (female Balb/C) were dosed po or iv with 28c (5 mg kg^–1) in 10% DMSO and 5% Tween 20 in saline. After administration, the mice were sacrificed at 5, 15, and 30 min and 1, 2, 4, 6, and 24 h. Blood was removed by cardiac puncture and centrifuged to obtain plasma samples. The plasma samples (100 μL) were added to the analytical internal standard (IS; olomoucine), followed by protein precipitation with 300 μL of methanol. Following centrifugation (1200g, 30 min, 4 °C), the resulting supernatants were analyzed for 28c levels by LC/MS using a reversed-phase X-Bridge C18 (Waters, 50 × 2.1 mm) analytical column and positive ion mode ESI MRM on a Waters 2795 liquid chromatography system coupled to a Quattro Ultima triple-quadrupole mass spectrometer (Waters).
as §2, with “40f” for “28c”, “The plasma samples (100 μL) were added to the analytical internal standard (IS; olomoucine), followed by protein precipitation with 300 μL of methanol.” left out, “Polar RP (Phenomenex,” for “X-Bridge C18 (Waters,”, “2” for “2.1”

CHK1 = CHK1 (Homo sapiens, UniProt O14757); experiment: Kinase selectivity profiling; format: biochemical; conditions: 110-kinase panel
Text: as §1

CK1 = CK1 (Homo sapiens, UniProt P48730); experiment: Kinase selectivity profiling; format: biochemical; conditions: 110-kinase panel
Text: as §1

CLK2 = CLK2 (Homo sapiens, UniProt P49760); experiment: Kinase selectivity profiling; format: biochemical; conditions: 110-kinase panel
Text: as §1

DAPK1 = DAPK1 (Homo sapiens, UniProt P53355); experiment: Kinase selectivity profiling; format: biochemical; conditions: 110-kinase panel
Text: as §1

ERK2 = ERK2 (Homo sapiens, UniProt P28482); experiment: Kinase selectivity profiling; format: biochemical; conditions: 110-kinase panel
Text: as §1

FGF-R1 = FGF-R1 (Homo sapiens, UniProt P11362); experiment: Kinase selectivity profiling; format: biochemical; conditions: 110-kinase panel, read-out: % activity remaining, FGF2R1
Text: as §1

GCK = GCK (Homo sapiens, UniProt Q12851); experiment: Kinase selectivity profiling; format: biochemical; conditions: 110-kinase panel
Text: as §1

HIPK1 = HIPK1 (Homo sapiens, UniProt Q86Z02); experiment: Kinase selectivity profiling; format: biochemical; conditions: 110-kinase panel
Text: as §1

HIPK3 = HIPK3 (Homo sapiens, UniProt Q9H422); experiment: Kinase selectivity profiling; format: biochemical; conditions: 110-kinase panel
Text: as §1

IKKb = IKKb (Homo sapiens, UniProt O14920); experiment: Kinase selectivity profiling; format: biochemical; conditions: 110-kinase panel
Text: as §1

IRR = IRR (Homo sapiens, UniProt P14616); experiment: Kinase selectivity profiling; format: biochemical; conditions: 110-kinase panel
Text: as §1

MNK1 = MNK1 (Homo sapiens, UniProt Q9BUB5); experiment: Kinase selectivity profiling; format: biochemical; conditions: 110-kinase panel
Text: as §1

PAK2 = PAK2 (Homo sapiens, UniProt Q13177); experiment: Kinase selectivity profiling; format: biochemical; conditions: 110-kinase panel
Text: as §1

PHK = PHK (Homo sapiens, UniProt Q16816); experiment: Kinase selectivity profiling; format: biochemical; conditions: 110-kinase panel
Text: as §1

PIM3 = PIM3 (Homo sapiens, UniProt Q86V86); experiment: Kinase selectivity profiling; format: biochemical; conditions: 110-kinase panel
Text: as §1

PKBb = PKBb (Homo sapiens, UniProt P31751); experiment: Kinase selectivity profiling; format: biochemical; conditions: 110-kinase panel
Text: as §1

Aurora A = Aurora A (Homo sapiens, UniProt O14965); experiment: Kinase selectivity profiling; format: biochemical; conditions: 110-kinase panel
[1] = 50-kinase panel (MRC-PPU Express Screen)

With Cc1nn(C)cc1-c1nc2c(Oc3ccc(C(=O)NC4CCC4)cc3)c(Cl)cnc2[nH]1 [compound 40f, 4-((6-Chloro-2-(1,3-dimethyl-1H-pyrazol-4-yl)-3H-imidazo[4,5-b]pyridin-7-yl)oxy)-N-cyclobutylbenzamide] the “phosphorylation of Aurora-A” value (Aurora-A wild type) was “completely inhibited”, the “histone H3 phosphorylation” value (Aurora B; 1.5 μM) was “increase in histone H3 phosphorylation” and the “inhibition of histone H3 phosphorylation at S10” value (Aurora B; 25 μM) was “partial inhibition”. For the same compound, the “inhibition of histone H3 phosphorylation at S10” value (Aurora B; 50 μM) was “complete inhibition”, the remaining activity at 1 µM (CK1δ) was 87% and the remaining activity at 1 µM (JNK1; [1]) was 100%. It also gave a remaining activity at 1 µM (LKB1; [1]) of 108%, a remaining activity at 1 µM (PAK4; [1]) of 89% and a remaining activity at 1 µM (PRK2; [1]) of 92%. For the same compound, the remaining activity at 1 µM (TTK; [1]) was 74%, the remaining activity at 1 µM (TrkA; [1]) was 58% and the “% activity remaining, AMPK (hum)” value (AMPK (hum)) was 85%.
For Cc1nn(C)cc1-c1nc2c(Oc3ccc(C(=O)Nc4ccccc4)cc3)c(Cl)cnc2[nH]1 [compound 28c, 4-((6-Chloro-2-(1,3-dimethyl-1H-pyrazol-4-yl)-3H-imidazo[4,5-b]pyridin-7-yl)oxy)-N-phenylbenzamide], the clearance (In vivo mouse PK) was 0.883 mL/min and 44.2 mL/min/kg, the Vd (In vivo mouse PK; read-out: volume of distribution) was 0.036 L and the remaining activity at 1 µM (CHK1) was 94%. The remaining activity at 1 µM (CK1) was 86%, the remaining activity at 1 µM (CLK2) was 84% and the remaining activity at 1 µM (DAPK1) was 95%. The remaining activity at 1 µM (ERK2) was 85%, the remaining activity at 1 µM (FGF-R1) was 82% and the remaining activity at 1 µM (GCK) was 98%. For the same compound, the remaining activity at 1 µM (HIPK1) was 102%, the remaining activity at 1 µM (HIPK3) was 96% and the remaining activity at 1 µM (IKKb) was 99%. It also gave a remaining activity at 1 µM (IRR) of 108%, a remaining activity at 1 µM (JNK1; 110-kinase panel) of 92% and a remaining activity at 1 µM (LKB1; 110-kinase panel) of 97%. The remaining activity at 1 µM (MNK1) was 126%, the remaining activity at 1 µM (PAK2) was 102% and the remaining activity at 1 µM (PAK4; 110-kinase panel) was 82%. For the same compound, the remaining activity at 1 µM (PHK) was 101%, the remaining activity at 1 µM (PIM3) was 102% and the remaining activity at 1 µM (PKBb) was 78%. For the same compound, the remaining activity at 1 µM (PRK2; 110-kinase panel) was 81%, the remaining activity at 1 µM (TTK; 110-kinase panel) was 102% and the remaining activity at 1 µM (TrkA; 110-kinase panel) was 100%. For the same compound, the remaining activity at 1 µM (Aurora A) was 4%.

From publication PMC3848336, “Aurora Isoform Selectivity: Design and Synthesis of Imidazo[4,5-b]pyridine Derivatives as Highly Selective Inhibitors of Aurora-A Kinase in Cells” (Journal of Medicinal Chemistry, 2013)
